Structures can show the parent of a compound that is named as a salt.
Tests used:
type 2 diabetes patients = conditions: cited from earlier work
[1] = test system: diabetes STZ-treated mice; assay: Von Frey test on diabetes STZ-treated mice (tactile allodynia); format: in vivo, mouse; conditions: 60 minutes after administration, mean of group
Procedure: Experiment B5: Von Frey Test on Diabetes STZ-Treated Mice.
Tactile allodynia was assessed by electronic von Frey apparatus (Bioseb) equipped with a flexible filament. Reaction to stimuli was assessed using growing applied pressure (from 0 to 10 g) on a plantar side of the hind foot of mice. Pregabalin was a control, as reference healthy mice with preserved normal response to the stimuli were used. In the day of the experiment, mice were placed separately in cages with a wire mesh bottom for 1 h for habituation to experimental conditions. After habituation period, each mouse was treated 3 times alternately, with 30 s intervals between each measurement, to obtain starting values (before administration of the compound) of pain sensitivity. […] The results are presented in Table 7 as mean value for all mice in a given group (n=7-10).

Row | Structure (SMILES) | side effects (type 2 diabetes patients; clinical development, associated with inhibition of bile acids transport) | glucose levels (type 2 diabetes patients; phase 3 clinical trials, type 2 diabetes patients) | Applied pressure causing the response, sick animal (neuropathic) after compound administration ([1]; 3 mg/kg p.o.) | Applied pressure causing the response, sick animal (neuropathic) after compound administration ([1]; 10 mg/kg p.o.) | Applied pressure causing the response, sick animal (neuropathic) after compound administration ([1]; 30 mg/kg p.o.)
1 | Cc1cc(OCCCS(C)(=O)=O)cc(C)c1-c1cccc(COc2ccc3c(c2)OC[C@H]3CC(=O)O)c1 [Example R1, 2[(3S)-6-({3-[4-(3-methanesulfonylpropoxy)-2,6-dimethylphenyl]-phenyl}methoxy)-2,3-dihydro-1-benzofuran-3-yl]acetic acid, reference compound] | side effects on the liver | ability to reduce glucose levels | – | – | –
2 | CC#C[C@@H](CC(=O)O)c1ccc(OCC(C)=C(C)C)cc1 [Example S1, (3S)-3-{4-[(2,3-dimethylbut-2-en-1-yl)oxy]phenyl}hex-4-ynoic acid calcium salt] | – | – | 1.85 g | 2.34 g | 3.36 g
